Test results reported in article PMC5918173, “Characterization of Transglutaminase 2 activity inhibitors in monocytes in vitro and their effect in a mouse model for multiple sclerosis” (PLoS ONE, 2018).

Biological target: T1, human TG2 in THP-1/TG2 macrophages (Homo sapiens, UniProt P21980)
T1 construct: expressed in transfected cells; host or cells: THP-1 (TIB-202, ATCC) stably transduced with lentiviral pCDH-hTG2, PMA-differentiated, retinoic acid-stimulated
T1 sequence (P21980 1-687): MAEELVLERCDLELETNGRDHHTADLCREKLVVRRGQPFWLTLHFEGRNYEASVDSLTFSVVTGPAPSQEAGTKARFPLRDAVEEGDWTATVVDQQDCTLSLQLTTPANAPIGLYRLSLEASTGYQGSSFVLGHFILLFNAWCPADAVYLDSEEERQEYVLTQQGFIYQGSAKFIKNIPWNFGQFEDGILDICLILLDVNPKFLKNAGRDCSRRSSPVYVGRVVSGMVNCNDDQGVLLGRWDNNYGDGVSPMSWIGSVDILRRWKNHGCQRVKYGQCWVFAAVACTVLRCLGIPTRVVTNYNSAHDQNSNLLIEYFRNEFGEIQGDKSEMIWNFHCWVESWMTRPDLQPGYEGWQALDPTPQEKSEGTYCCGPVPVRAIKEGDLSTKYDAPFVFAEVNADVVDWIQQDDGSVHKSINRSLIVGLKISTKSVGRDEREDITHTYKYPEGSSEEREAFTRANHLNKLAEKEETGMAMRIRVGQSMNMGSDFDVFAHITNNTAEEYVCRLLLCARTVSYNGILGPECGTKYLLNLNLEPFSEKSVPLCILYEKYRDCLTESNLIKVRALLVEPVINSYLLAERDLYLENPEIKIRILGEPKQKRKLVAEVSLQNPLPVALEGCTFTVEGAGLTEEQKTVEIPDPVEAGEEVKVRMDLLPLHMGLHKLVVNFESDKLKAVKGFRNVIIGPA
Assay: Cellular inhibition of TG activity in THP-1/TG2 cells (BAP incorporation)
Format: cell-based
Conditions: TG2 overexpressing THP-1 macrophages, Fig 2D
Procedure: Human monocytic THP-1 cells (TIB-202, ATCC) were transduced with a lentiviral vector (pCDH-hTG2, gift from Prof K. Mehta, University of Texas, USA) to overexpress human TG2, to ensure high protein levels in addition to their constitutive expression that can be inhibited. To obtain a stable TG2 overexpressing cell line, transduced cells (THP-1/pCDH-hTG2 (THP-1/TG2)) were positively selected with puromycin and cultured at 37°C and 5% CO2 in air in RPMI-1640 medium (Gibco) supplemented with 10% fetal calf serum (FCS; Gibco), and 50 Units/ml of penicillin and 50 μg/ml streptomycin (Gibco).
THP-1/TG2 cells cultured with 3% FCS were differentiated into macrophages with 250 nM phorbol-12-myristate-13-acetate (Sigma) for 48 h hours. Simultaneously, the cells were stimulated with 1 μM retinoic acid (Fluka) as TG2 expression inducer to ensure maximal TG2 expression and activity. The in vitro TG activity inhibition assay was performed as previously described. In detail, the cells were washed with serum free medium and incubated for 4 h (37°C, 5% CO2) with 1 mM of the TG substrate 5-(biotinamido) pentylamine (BAP, Pierce) in serum free medium. […] The total protein concentration was determined with the BCA method (Pierce, according to protocol) and adjusted to the same concentration in all samples. […] The optical density at 492 nm was measured.

| effect on cellular TG2 activity (0.03 to 100 μM) | IC50 (read-out: IC50 cellular TG2 transamidating activity) [nM] | SMILES |
| --- | --- | --- |
| no effect | – | O=C(NCC1CC(Br)=NO1)C1CCCN1C(=O)OCc1cnc2ccccc2c1 (centres unmarked) [ERW1041E, 2-[(3-Bromo-4,5-dihydro-isoxazol-5-ylmethyl)-carbamoyl]-pyrrolidine-1—carboxylic acid quinolin-3-ylmethyl ester] |
| – | 1800 | C=CC(=O)NC1CCN(S(=O)(=O)c2cccc3c(NC(=O)c4ccc(OC)c(OC)c4)cccc23)CC1 [BJJF078, 3,4-Dimethoxy-N-(5-[4-(acryloylamino)piperidine-1-sulfonyl]-naphthalen-1-yl)-benzamide] |
